Assay: Human HepG2 cell viability assay in 384 well format
Assay type: toxicity, cell-based
Design: dose 125 nL, time 70.5 hour; cytotoxicity at 70.5 h: concentration not given beside the values
Conditions: HepG2 cells, read-out: Inhibition

Row | Structure (SMILES) | cytotoxicity at 70.5 h [%]
1 | O=C(CN1CCc2ccccc2C1)NCc1ccco1 | 3.48
2 | CC1(NC(=O)Cc2csc(-c3cccc(Cl)c3)n2)CCS(=O)(=O)C1 (stereo not given) | -63.1
3 | CNC(=O)c1cccnc1NCc1ccc(-n2cccn2)cc1 | 4
4 | Cc1nnc(CN(C)CC(=O)N2CCCC(C(F)(F)F)C2)n1C (stereo not given) | 16.8
5 | CN(Cc1nc(C2CC2)no1)C1CCS(=O)(=O)C1 (stereo not given) | -4.77
6 | COc1ccc(OCc2noc(CN(C)C3CCS(=O)(=O)C3)n2)cc1 (stereo not given) | -5.76
7 | CC(C)Cc1noc(CN(C)C2CCCC2)n1 | 28.6
8 | CCc1nc2n(n1)CC(NCc1nc3ccccc3o1)CC2 (stereo not given) | -8.97
9 | CCc1nc2n(n1)CC(NCc1cc3ccccc3o1)CC2 (stereo not given) | -8.62
10 | c1ccc(CCN2CCc3c(ncn3C3CC3)C2)nc1 | -3.33
11 | CN(C)S(=O)(=O)CCCN1CCc2c(ncn2C2CC2)C1 | 9.65
12 | NC(=O)NC(=O)C(c1ccccc1)N1CCN(Cc2ccc(Cl)s2)CC1 (stereo not given) | -3.49
13 | O=C(NC1CC1)C(c1ccccc1)N1CCN(Cc2ccc(Cl)s2)CC1 (stereo not given) | -3.83
14 | O=C1CCC(=O)N1Cc1ccc(C(=O)N2CCCC2c2cccs2)cc1 (stereo not given) | -11.1
15 | CC(C(=O)Nc1ccccc1F)S(C)(=O)=O (stereo not given) | 2.07
16 | CC(C)CCNC(=O)NC(C)c1nncn1C (stereo not given) | 22
17 | NC(=O)C1CCN(C(=O)NC2CCc3cc(F)ccc32)CC1 (stereo not given) | 2.63
18 | O=C(NCC1CCC1)c1ccc(-n2ccnc2)nn1 | 5.15
19 | CN1CCOC(CNC(=O)C2(c3cccc(C(F)(F)F)c3)CCCC2)C1 (stereo not given) | 6.99
20 | CC1CCCN(C(=O)c2occc2COc2cccc(C#N)c2)C1 (stereo not given) | 4.5
21 | Cc1cc(CN(Cc2ccccc2)C2CC2)on1 | -0.663
22 | CCNS(=O)(=O)c1ccc(C)c(C(=O)N(C)Cc2ccccc2C)c1 | 2.99
23 | COCCN(Cc1ccc(F)cc1Cl)C(=O)c1cc[n+]([O-])cc1 | 17.1
24 | CCc1ccsc1C(=O)N1CCCC(c2noc(C)n2)C1 (stereo not given) | -2.57

Row | Structure (SMILES) | cytotoxicity at 70.5 h [%]
25 | Cc1nc(C2CCCN(C(=O)c3cc(C)sc3C)C2)no1 (stereo not given) | -2.35
26 | CSCCNC(=O)c1cc(Br)cn1C(C)C | -1.74
27 | CCNS(=O)(=O)c1ccc(C)c(C(=O)N(CCC#N)Cc2ccco2)c1 | 19.1
28 | CCc1nc(CN2CCCC(N(C)CCn3cccn3)C2)no1 (stereo not given) | 57.1
29 | CCOC(C)C(=O)N1CCN(S(C)(=O)=O)CC1 (stereo not given) | -112
30 | CC(NC(=O)C1=NN(C)C(=O)CC1)c1ccccc1Cl (stereo not given) | -96.4
31 | CS(=O)(=O)CCOc1nc(-c2ccccc2Cl)no1 | -102
32 | CC(CN1CCCC1=O)NC(=O)c1ccc(C(F)(F)F)[nH]c1=O (stereo not given) | -74.6
33 | CCc1ncc2c(n1)CN(Cc1cc(C)on1)CC2 | -106
34 | CC(CN1CCCC1=O)NC(=O)c1cc(=O)[nH]c2ccc(Cl)cc12 (stereo not given) | -85.6
35 | Cc1n[nH]c(C2CN(CC(=O)NCCc3ccc(F)cc3)CCO2)n1 (stereo not given) | -114
36 | O=C(NS(=O)(=O)c1c(Cl)cccc1Cl)c1cccc2c1OCCO2 | -103
37 | COC(=O)c1ccccc1S(=O)(=O)NC(=O)c1cccc2c1OCCO2 | -100
38 | CCC(COC)NC(=O)N1CCC(n2ccc(C(F)(F)F)n2)CC1 (stereo not given) | -104
39 | O=C(NCCCF)N1CCC(n2ccc(C(F)(F)F)n2)CC1 | -104
40 | COC(C)(C)CNC(=O)N1CCC(n2ccc(C(F)(F)F)n2)CC1 | -76.1
41 | Cc1cccc(C(=O)N2CCN(S(C)(=O)=O)[C@@H](C)C2)c1Cl | -102
42 | CCc1ncc2c(n1)CN(Cc1nnc(C(C)C)o1)CC2 | -99.6
43 | CCc1ncc2c(n1)CN(Cc1nnc(CC)o1)CC2 | -79.4
44 | COCCc1noc(CN2CCCC2c2noc(C)n2)n1 (stereo not given) | -0.394
45 | CN1CCN(CC2CCN(C(=O)CCC3CCCCC3)CC2)CC1 | -2.91
46 | O=S(=O)(NCC1COc2ccccc2C1)N1CCCCCC1 (stereo not given) | -7.48
47 | Cc1ccc(C(=O)NC2CCN(Cc3nc(CC(C)C)no3)CC2)s1 | 1.36
48 | CCCc1noc(CN2CCC(NC(=O)c3ccc(C)s3)CC2)n1 | -4.33

Row | Structure (SMILES) | cytotoxicity at 70.5 h [%]
49 | Nc1ncc(C(=O)N2CCN(c3nccs3)CC2)cc1Cl | -4.3
50 | CCOC(=O)NCCC(=O)NC(C)(C)c1ccc2c(c1)OCCO2 | -6.26
51 | COCC(NC(=O)c1ccco1)c1cccc(C(F)(F)F)c1 (stereo not given) | -3.48
52 | O=C(C(CNCc1cccs1)c1ccccc1)N1CCOCC1 (stereo not given) | 7.5
53 | CCn1nc2c(cc1=O)CN(Cc1nc(C)c3ccccc3n1)CC2 | -6.18
54 | CC(c1cccnc1)N(C)Cc1ccccn1 (stereo not given) | -7.62
55 | O=C(C(CNCc1cccnc1)c1ccccc1)N1CCOCC1 (stereo not given) | -8.37
56 | CCC(C)(CCO)NC(=O)c1ccon1 (stereo not given) | 24.8
57 | Cc1cc(NC(=O)c2ccc(F)cc2F)n(C)n1 | -10.6
58 | Cc1cc(NC(=O)c2ccc(F)cc2Cl)n(C)n1 | 6.57
59 | COc1cc(Cl)c(NCc2c(C)noc2C)cc1OC | -7.06
60 | COc1cc(NCc2c(C)noc2C)c(C(=O)N(C)C)cc1OC | -8.14
61 | Cc1cc(NC(=O)COC(=O)c2ccc(F)cc2Br)n(C)n1 | -12.3
62 | Cc1cc(NC(=O)c2ccc(F)cc2Br)n(C)n1 | -4.35
63 | O=c1[nH]ncc(NCCOc2cccc(Br)c2)c1Cl | -5.68
64 | CN(CC(=O)Nc1cc(C(C)(C)C)n[nH]1)S(C)(=O)=O | 12
65 | Cc1nn(CC(O)CN2CCC(C)CC2)c(=O)c(C#N)c1C (stereo not given) | -17
66 | CCCn1nnnc1CN1Cc2ccccc2CC1c1nnc(C)o1 (stereo not given) | -8.77
67 | Cn1c(C(=O)N(CC(N)=O)C2CCCC2)cc(Cl)c1Cl | -10.6
68 | C=C(C)CN1CCCC(CNS(C)(=O)=O)C1 (stereo not given) | -4.35
69 | Cc1ccc(-c2cc(CN3CCc4cncnc4C3)on2)cc1 | -10.9
70 | CCN(C(=O)COc1nc(Cc2ccc(F)cc2)no1)C1CC1 | -5.41
71 | CN(CC(F)(F)F)C(=O)COc1nc(Cc2ccc(F)cc2)no1 | -7.01
72 | Cc1cnn(CCNCC(O)c2ccc(S(C)(=O)=O)cc2)c1 (stereo not given) | -11.8

Row | Structure (SMILES) | cytotoxicity at 70.5 h [%]
73 | Cc1cccc(N2N=C(C(=O)NC(C)CCc3ccco3)CCC2=O)c1 (stereo not given) | 28.5
74 | CC(C)CCN(C(=O)c1cccc(NC(N)=O)c1)C1CC1 | -17.2
75 | CC(C)COC1CCN(C(=O)c2ccc(C(F)(F)F)[nH]c2=O)CC1 | -4.17
76 | c1cc(-c2nnc(C3(c4ccc5c(c4)OCO5)CCOCC3)o2)ccn1 | -11.2
77 | NC(=O)Nc1cccc(C(=O)N(Cc2ccncc2)C2CC2)c1 | -10.2
78 | O=C(Nc1cc(-c2ccccc2)on1)N1CCN(CCO)CC1 | -6.53
79 | CC(SCc1cc(Br)cc2cccnc12)C(N)=O (stereo not given) | -16
80 | CC(SCc1ccc(Br)c2cccnc12)C(N)=O (stereo not given) | 18.2
81 | COCCn1ccc2ccc(NC(=O)NCc3noc(C)n3)cc21 | 2.1
82 | CC(C)(C#N)CCCS(=O)(=O)c1nccn1-c1cccc(F)c1 | -10.9
83 | CC(SCCS(C)(=O)=O)c1nc(Cc2ccc(F)cc2)no1 (stereo not given) | -0.925
84 | CCC(=O)N(CC)CCc1nccs1 | -9.4
85 | Cc1ccc(C(=O)N(C)C)cc1NC(=O)COCC1CC1 | -6.84
86 | CCN(CCc1nccs1)C(=O)c1sccc1C | -9.19
87 | COc1ccc(C(=O)NCCCNc2ncccn2)cc1F | 3.94
88 | OC(COCc1ccccc1)CSc1nnc2ccccn12 (stereo not given) | -5.06
89 | CCCc1noc(CCC(=O)Nc2cc(C(F)(F)F)c[nH]c2=O)n1 | -6.41
90 | O=C(c1nc(=O)[nH][nH]1)N1CCCN(CC2CCCCC2)CC1 | -7.64
91 | CNC(=O)c1ccc(NC(=O)NC(C)c2cc(C)oc2C)cc1 (stereo not given) | -8.2
92 | CN(C)CCN(Cc1ccccc1)C(=O)C1=NNC(=O)CC1 | -6.1
93 | CN(Cc1cccs1)C(=O)c1ccc(=O)n(C)c1 | -5.37
94 | CCOc1ccc(C(=O)NCCCNc2ncccn2)cc1 | 17.7
95 | NC(=O)C1=NC2=NS(=O)(=O)c3ccccc3N2N1Cc1ccccc1Cl | -7.31
96 | Cn1c(N)nnc1SCc1cc(Br)ccc1Cl | -10.9

Row | Structure (SMILES) | cytotoxicity at 70.5 h [%]
97 | Cn1cc(S(=O)(=O)Nc2c(F)cccc2N2CCCC2)cn1 | -4.97
98 | COCCNc1ccccc1CNC(=O)C1CCCOC1 (stereo not given) | -2.32
99 | CCOc1ccc(NC2CCN(C3CC3)C2=O)cn1 (stereo not given) | -1.16
100 | Cc1cc(S(=O)(=O)Nc2onc(C)c2C)sc1C | -5.02
101 | CC(C)(C)Cc1nnc(NCc2cccc(C#N)c2)o1 | -1.69
102 | CN(Cc1ncnn1C)C(=O)Nc1ccc(OC(F)F)cc1 | -8.26
103 | Cc1ncc2c(n1)CN(CCOCC(F)(F)F)CC2 | -4.14
104 | FC(F)(F)COCCN1CCc2cncnc2C1 | -2.38
105 | CCc1nc(C2CCCN2C(=O)c2ccc(=O)n(CC)n2)no1 (stereo not given) | 4.08
106 | CCn1nc(C(=O)N2CCCC2c2noc(C)n2)ccc1=O (stereo not given) | -3.84
107 | CCN(CC)c1ccc(NC(=O)NCC2CCOC2)cn1 (stereo not given) | -12.2
108 | CC(C)(CNc1cn[nH]c(=O)c1Cl)c1ccc2c(c1)OCCO2 | -13.9
109 | Cc1noc(C2CCN(C(C)c3nc(C4CC4)no3)CC2)n1 (stereo not given) | -16.9
110 | CCc1ccc(CCC(=O)NCc2nnc[nH]2)cc1 | -19.3
111 | CC(c1nc(C(C)(C)C)no1)N1CCC(N2CCCC2)CC1 (stereo not given) | 4.89
112 | O=C(C1CSc2ccccc2O1)N1CCN(CCO)CC1 (stereo not given) | -14.3
113 | CNC(=O)CN(C)c1cncc(OCC(C)C)n1 | -5.85
114 | CCC(NC(=O)c1cccc2[nH]ccc12)C(=O)N1CCOCC1 (stereo not given) | -6.49
115 | O=C(CCc1ccc(Br)cc1)NCc1nnc[nH]1 | -9.74
116 | CCn1c(CN(C)C(C)CSC)nc2c(F)cccc21 (stereo not given) | -3.45
117 | CN(C)Cc1nc(C(C)(C)NC(=O)c2ccnn2C)no1 | 8.69
118 | Cc1ccc(C)c(OCC(O)CN(C)CC(=O)Nc2cc(C)on2)c1 (stereo not given) | 3.48
119 | CCOc1cc(CN(C)CC(=O)O)ccc1OC(F)F | 6.63
120 | Cc1sc(Br)cc1S(=O)(=O)NCCCN | -8.71

— ChEMBL document CHEMBL3507680, “University of Dundee, Gates Library screen for HepG2 cell viability”
